Experimental data taken from PMC10009108, “Design, synthesis and screening of indole acetic acid-based tri-azo moieties as antioxidants, anti-microbial and cytotoxic agents” (Frontiers in Pharmacology, 2023).
≈ marks a conversion by molar mass, not a printed value.

Columns and labels:
[1] = test system: Staphylococcus aureus (ATCC-6538); assay: Antibacterial assay, micro broth dilution; format: cell-based; details: ATCC6538, read-out: S. aureus MIC
Text: (§1) The micro broth dilution method was used to establish the antibacterial potential of test samples against Staphylococcus aureus (ATCC-6538), Bacillus subtilis (ATCC-6633), Escherichia coli (ATCC-25922), Klebsiella pneumoniae (ATCC-1705), and Pseudomonas aeruginosa (ATCC-15442) and for the resistant strains of MRSA Staphylococcus aureus, P. aeruginosa and Escherichia coli. The procedure used is described by ([Sarker et al., 2007]). Bacterial inoculum was formed under aseptic conditions keeping the density near 5 × 10^4 CFU/mL in pre-autoclaved nutrient broth. Test samples of an aliquot of 5 µL were shifted to labeled wells of 96 well plates, and after that addition of 195 µL of nutrient broth; was accomplished. After that, a 2-fold serial dilution of every sample was arranged to get final concentrations of 12.5 μg/mL. Then, with the help of a micropipette, 195 µL of bacterial culture of respective strains was poured into each well; further advancement was incubating of plates for 30 min at the temperature of 37°C. […] Incubation of plates was again carried out at 37°C for 1 day, absorbance was noted, and net change in turbidity was the difference between two values of absorbance.
(§2) Schiff base tri-azo compounds were investigated for antibacterial potential. […] 6.25 μg/mL for 5b and 5g, and the least, Table 4 3.12 μg/mL was for 5f. […] Substituents with electron-withdrawing attributes, e.g., -NO2, -Cl, -OH on the aromatic ring, assert a great impact on the antibacterial activity of synthetic compounds. It is also observed that an increase in the number of -OH groups tend to enhance the activity ([Hosamani and Shingalapur, 2011]). Due to the difference in cell-wall composition of Gram + ve and -ve bacteria, different compounds show different features towards the same micro-organism ([Goszczyn’ska et al., 2015]).

[2] = test system: Pseudomonas aeruginosa (ATCC-15442); assay: Antibacterial assay, micro broth dilution; format: cell-based; details: ATCC15442
Text: as §1, §2

[3] = test system: Escherichia coli (ATCC-25922); assay: Antibacterial assay, micro broth dilution; format: cell-based; details: ATCC25922, read-out: E. coli MIC
Text: as §1, §2

[4] = DPPH free radical scavenging assay; details: at 50 μg/mL
Description: The DPPH assay was executed via the technique stated by ([Bibi et al., 2011]). DPPH(Diphenyl-1-picrylhydrazyl), a free radical, is bagged to inquire about the antioxidant ability of the synthesized compounds. 10 μL from the synthesized compound (1 mg/mL DMSO) is added to 190 μL DPPH solution., making up the final conc. of 50 μg/mL.
DPPH assay was repeated in triplicate using DMSO as -ve and ascorbic acid as + ve control; findings are expressed as means standard deviation.
It is one of the very commonly utilized methods for the assessment of the antioxidant ability of compounds. DPPH turns from purple to yellow, which indicates the synthetic compound’s scavenging potential ([Rahman et al., 2017]). DMSO and A.A. were used as -ve and +ve control. The antioxidant potential of compounds was assessed at 50 μg/mL, 25 μg/mL, 12.5 μg/mL, and 6.25 μg/mL. […] Production of free radicals is an outcome of regular oxygen consumption in the body; whenever something is missing with the natural antioxidant mechanism, the accumulation of these free radicals may lead to cytotoxic interaction with the body systems and may cause damage to genomic content of various cells, and proteins in the body ([Barbuceanu et al., 2014]). Free radical accumulation is also associated with different diseases, e.g., coronary heart disease, neuronic disorders, diabetes, necrosis, and various tumors ([Ismaili.et al., 2008]). The antioxidant potential of the compound depends upon its reducing power; the introduction of hydroxy and methoxy groups on the Benzene ring led to better reducing power or promising antioxidant activity ([Rakesh et al., 2015]).

[5] = Total antioxidant capacity (TAC assay); details: rank among the synthetic compounds
Description: This evaluation was based on the protocol by ([Bibi et al., 2011]). This mechanism’s key point is reducing Mo (VI) to Mo (V). A solution consisting of 4 mM Ammonium molybdate, 28 mM SodiumPhosphate, and 0.6 M Sulphuric acid is utilized, which forms Phosphate Molybdenum Complex which is green in color and gives absorption = […]. […] of the sample is added to […] of reagent, which is incubated at 95°C for one and a half hours and cooled to 25°C.
The antioxidant potential of test compounds was estimated by TAC &TRP assays. The spectrophotometric method was used to analyze the formation of the green-colored phosphomolibdenum compound. […] The findings are depicted in Figure 6.

| MIC [1] [µg/mL] | MIC [2] [µg/mL] | MIC [3] [µg/mL] | %DPPH inhibition (% free radical scavenging) [4] [%] | Compound | activity in the TAC assay (in words) [5] |
| --- | --- | --- | --- | --- | --- |
| 25 (≈ 59 µM) |  |  |  | COc1cc(C=Nn2c(Cc3c[nH]c4ccccc34)n[nH]c2=S)cc(OC)c1OC [Compound 5g] |  |
|  | 12.5 (≈ 35.8 µM) |  |  | Oc1cccc(C=Nn2c(Cc3c[nH]c4ccccc34)n[nH]c2=S)c1 [Compound 5a] |  |
| 25 (≈ 68 µM) |  |  |  | S=c1[nH]nc(Cc2c[nH]c3ccccc23)n1N=Cc1cccc(Cl)c1 [Compound 5f] |  |
|  |  | 25 (≈ 68 µM) | 11.1 | S=c1[nH]nc(Cc2c[nH]c3ccccc23)n1N=Cc1ccc(Cl)cc1 [Compound 5c] |  |
|  | 3.12 (≈ 8.93 µM) | 25 (≈ 71.5 µM) | 8.3 | Oc1ccc(C=Nn2c(Cc3c[nH]c4ccccc34)n[nH]c2=S)cc1 [Compound 5e] |  |
|  |  | 25 (≈ 66.1 µM) | 11.1 | O=[N+]([O-])c1ccc(C=Nn2c(Cc3c[nH]c4ccccc34)n[nH]c2=S)cc1 [Compound 5d] |  |
|  | 12.5 (≈ 34.4 µM) |  | 32 | COc1cccc(C=Nn2c(Cc3c[nH]c4ccccc34)n[nH]c2=S)c1 [Compound 5b] | maximum activity |
